Assay in all cases: inhibition of tumour cell growth, NCI panel, 48 h
The subject of test [1] is MDA-MB-231 breast.
The subject of test [2] is HCC-2998 colon.
In test [3] the test system is OVCAR-8 ovarian.
Test [4] concerns UACC-62 melanoma.
In test [5] the test system is K-562 leukemia.
In test [6] the test system is ACHN renal.
In test [7] the test system is EKVX NSCLC.
In test [8] the test system is NCI/ADR-RES ovarian.
In test [9] the test system is HCT-15 colon.
Test [10] relates to A498 renal.
Test [11] relates to SNB-75 CNS.
The test system of test [12] is U251 CNS.
Test [13] relates to PC-3 prostate.
Test [14] deals with SK-MEL-2 melanoma.
The subject of test [15] is MALME-3M melanoma.
The test system of test [16] is IGROV1 ovarian.
In test [17] the test system is CAKI-1 renal.

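96-well plates; 48 h exposure; 5 concentrations. Endpoints by linear interpolation between flanking doses. Not reached: highest tested concentration assigned. At the TGI there is no net growth.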 Some results are limits rather than exact numbers.

Regarding `C/C(=N/NC(=S)Nc1ccccc1Cl)c1cccc(/C(C)=N\NC(=S)Nc2ccccc2Cl)n1`, the TGI was 75.2 µM in test [1]; more than 100 µM in test [2]; 81.8 µM in test [3]; more than 100 µM in test [4]; more than 100 µM in test [5]; more than 100 µM in test [6]. The TGI in test [7], in test [8], in [9], in [10], in test [11] and in test [12] was more than 100 µM throughout. For the same compound, the TGI in test [13], in test [14], in test [15], in test [16] and in test [17] was more than 100 µM each time.

Turning to `[Se]=P(c1ccccc1)(c1ccccc1)c1ccc(C(c2ccccc2)=P(c2ccccc2)(c2ccccc2)c2ccccc2)cc1`, the TGI in [1] came out at 7.33 µM; in test [2] it was 11.6 µM; in test [3], 8.02 µM; in [4] it was 3.85 µM; in [5], 3.33 µM; in test [6], 8.06 µM. In addition, the TGI is 15.8 µM in test [7]; more than 54.1 µM in [8]; 18.8 µM in test [9]; 9.4 µM in test [10]; 3.49 µM in test [11]; 5.25 µM in test [12]. Besides, the TGI in test [13] was determined as 9.34 µM; in test [14], 6.21 µM; in test [15], 2.51 µM; in test [16] it was 11.5 µM; in test [17], 8.5 µM.

As to `COC(=O)C(CCc1ccccc1I)C1=CCC2(CC1)OCCO2` (stereo not given), the TGI in [1], in [2], in test [3], in [4], in test [5] and in test [6] was more than 100 µM in each case. Also, the TGI in [7], in test [8], in test [9], in test [10], in test [11] and in [12] was more than 100 µM each time. For the same compound, the TGI in test [13], in test [14], in test [15], in test [16] and in test [17] was more than 100 µM throughout.

With `Cc1ccc(OCC2OC(n3cnc4nc(Cl)nc(Cl)c43)CC2Oc2ccc(C)cc2)cc1` (stereo not given), the TGI in test [1] came out at 6.56 µM; in test [2], 12.2 µM; in [3], 59.5 µM; in test [4] it was 20.5 µM; in [5], 4.83 µM; in test [6], 7.9 µM. The TGI came out at 34 µM in test [7]; 37.8 µM in test [8]; 6.33 µM in test [9]; 72.2 µM in test [10]; 28.5 µM in [11]; 55.5 µM in test [12]. In addition, the TGI was 24.5 µM in test [13]; 18.1 µM in test [14]; 33.9 µM in test [15]; 19.7 µM in [16]; 9.75 µM in test [17].

With `COc1ccccc1C1SCC(=O)N1c1ccc(-c2ccc(-n3c(-c4ccccc4)nc4ccccc4c3=O)cc2)cc1` (stereo not given), the TGI in [1], in test [2], in test [3], in test [4], in test [5] and in test [6] was more than 100 µM each time. For the same compound, the TGI in [7], in test [8], in test [9], in test [10], in test [11] and in test [12] was more than 100 µM each time. The TGI in test [13], in test [14], in test [15], in [16] and in test [17] was more than 100 µM each time.

As to `CCCCc1c(C(=O)OC(C)(C)C)cc(C#Cc2cc(C(=O)OC(C)(C)C)c(CCCC)c(C(=O)OC(C)(C)C)c2)cc1C(=O)OC(C)(C)C`, the TGI in test [1], in test [2], in test [4], in test [6], in test [7] and in test [8] was more than 100 µM throughout. Also, the TGI in test [9], in [10], in [11], in test [12], in test [13] and in test [14] was more than 100 µM in each case. For the same compound, the TGI in test [15], in test [16] and in test [17] was more than 100 µM throughout.

With `O=C(NCCC(F)(F)C(F)(F)C(F)(F)C(F)(F)F)NC1OC(CO)C(O)C(O)C1O` (stereo not given), the TGI in test [1], in test [2], in test [4], in test [5], in test [6] and in test [8] was more than 100 µM throughout. Moreover, the TGI in test [9], in test [11], in test [12], in [13], in test [14] and in test [15] was more than 100 µM in each case. The TGI in [16] and in test [17] was more than 100 µM each time.

In the case of `Cc1ccc(OCC2OC(n3cnc4c(N(C)C)nc(Br)nc43)CC2Oc2ccc(C)cc2)cc1` (stereo not given), the TGI in test [1], in test [2], in [3], in test [4], in test [5] and in test [6] was more than 100 µM each time. Moreover, the TGI in test [7], in test [8], in test [9], in test [10], in test [12] and in test [13] was more than 100 µM each time. Also, the TGI in test [14], in test [15], in [16] and in test [17] was more than 100 µM throughout.

On to `COC(=O)/C=C(\C)C(=O)N(C)c1ccccc1I`, for which the TGI in test [1], in [2], in test [3], in test [4], in test [5] and in [6] was more than 100 µM each time. In addition, the TGI in [7], in test [8], in test [9], in test [10], in [11] and in [12] was more than 100 µM in each case. Further, the TGI in test [13], in test [14], in test [15] and in test [17] was more than 100 µM each time.

In the case of `CC(C)SC(C)(NC(=O)C1C(C)(C)CCC1(C)C)C(=O)O` (stereo not given), the TGI in test [1], in [2], in [5], in [6], in test [7] and in test [8] was more than 100 µM throughout. Also, the TGI in test [9], in [10], in [11], in test [12], in test [13] and in test [14] was more than 100 µM throughout.

On to `O=C(/C=C/c1ccsc1)c1ccco1`, for which the TGI in test [1] was 26.9 µM; in [2] it was 26.3 µM; in [3], 24 µM; in test [4], 29.2 µM; in test [5], more than 56.4 µM; in test [6] it was 22.8 µM. Moreover, the TGI in test [7] is 36 µM; in test [8], 40.5 µM; in [9], 20.1 µM; in [10], 17.8 µM; in [11], 26 µM; in [12], 20.3 µM. The TGI in [13] was 28.5 µM; in test [14], 38.9 µM; in [16], 22.8 µM.

`O=C(Nc1cccc(C(F)(F)F)c1)O/N=C(/Cl)CCl`: the TGI in [1] was 39 µM; in test [2], more than 100 µM; in test [3] it was more than 100 µM; in test [5], more than 100 µM; in test [6] it was more than 100 µM; in test [7], more than 100 µM. The TGI in test [8], in test [9], in test [10], in [11], in [12] and in test [13] was more than 100 µM each time. The TGI in test [14], in test [15], in test [16] and in test [17] was more than 100 µM throughout.

In the case of `CN(C)c1nc(NC23CC4CC(CC(C4)C2)C3)nc(N(C)C)n1`, the TGI is more than 57 µM in test [1]; 97.1 µM in test [2]; more than 100 µM in [3]; more than 76.1 µM in test [4]; 7.84 µM in [5]; more than 100 µM in [6]. Besides, the TGI in [7] is more than 100 µM; in test [8], more than 100 µM; in test [9], 41.2 µM; in test [10], more than 100 µM; in test [11], more than 55.2 µM; in test [12] it was more than 55.3 µM. The TGI in test [13] was more than 42.2 µM; in [14], 63.1 µM; in test [15], more than 71.5 µM; in test [17] it was more than 100 µM.

The record behind these values is PubChem BioAssay (NCI).
